Legend:
[1] = biological target: benzodiazepine binding site on GABAA receptors; experiment: In vitro inhibition of 3H-flunitrazepam (3H-FNM) binding; set-up: species or system rat; settings: cerebral cortex membranes from male Wistar rats; 3H-FNM 1 nM; 40 min at 2° C.
Procedure: In Vitro Inhibition of […] (3H-FNM) Binding
The GABA recognition site and the benzodiazepine modulatory unit can selectively be labelled with ^3H-flunitrazepam.
Preparations are performed at 0-4° C. unless otherwise indicated. Cerebral cortex from male Wistar rats (150-200 g) is homogenised for 5-10 sec in 20 ml Tris-HCl (30 mM, pH 7.4) using an Ultra-Turrax homogeniser. The suspension is centrifuged at 27,000×g for 15 min and the pellet is washed three times with buffer (centrifuged at 27,000×g for 10 min). The washed pellet is homogenized in 20 ml of buffer and incubated on a water bath (37° C.) for 30 min to remove endogenous GABA and then centrifuged for 10 min at 27,000×g. The pellet is then homogenized in buffer and centrifuged for 10 min at 27,000×g. The final pellet is resuspended in 30 ml buffer and the preparation is frozen and stored at −20° C.
The membrane preparation is thawed and centrifuged at 2° C. for 10 min at 27,000×g. The pellet is washed twice with 20 ml 50 mM Tris-citrate, pH 7.1 using an Ultra-Turrax homogeniser and centrifuged for 10 min at 27,000×g. The final pellet is resuspended in 50 mM Tris-citrate, pH 7.1 (500 ml buffer per g of original tissue), and then used for binding assays. Aliquots of 0.5 ml tissue are added to 25 μl of test solution and 25 μl of ^3H-FNM (1 nM, final concentration), mixed and incubated for 40 min at 2° C. Non-specific binding is determined using Clonazepam (1 μM, final concentration). After incubation the samples are added 5 ml of ice-cold buffer and poured directly onto Whatman GF/C glass fibre filters under suction and immediately washed with 5 ml ice-cold buffer. The amount of radioactivity on the filters is determined by conventional liquid scintillation counting. Specific binding is total binding minus non-specific binding.
25-75% inhibition of specific binding must be obtained, before calculation of an IC50.
The test value will be given as IC50 (the concentration (μM) of the test substance which inhibits the specific binding of ^3H-FNM by 50%).
Co is specific binding in control assays, and […]

| SMILES | IC50 [1] | melting point |
| --- | --- | --- |
| O=C(c1ccccc1)c1cn(-c2cccc(-c3ccccc3)c2)cn1 [Compound 8, (1-Biphenyl-3-yl-1H-imidazol-4-yl)-phenyl-methanone] | 36 nM | – |
| COc1ccc(F)cc1-c1cccc(-n2cnc(C(=O)c3ccccn3)c2)c1 [Compound 14, [1-(5′-Fluoro-2′-methoxy-biphenyl-3-yl)-1H-imidazol-4-yl]-pyridin-2-yl-methanone] | 2.7 nM | – |
| O=C(c1cn(-c2cccc(-c3ccccc3)c2)cn1)n1cccn1 [Compound 178, (1-Biphenyl-3-yl-1H-imidazol-4-yl)-pyrazol-1-yl-methanone] | 5.9 nM | 124 to 127 °C |

From patent US8030339B2, “Imidazole derivatives for the treatment of anxiety and related diseases” (Neurosearch A/S, priority 2005, dated 2011)
